The values below come from the NIST ThermoML archive (doi:10.1016/j.jct.2013.08.011).

Numbers after ± are expanded uncertainties.

The conditions of data set [1]: Liquid; for Normal boiling temperature: Ebulliometric method (Recirculating still); for mass density: 293.15 K, 101.33 kPa, Vibrating tube method.
Data set [2] is described as follows: refractive index (Na D-line) (dimensionless). Particulars: 293.15 K; 101.33 kPa; Liquid; Standard Abbe refractometry.

A word on the refractive index: it is a measure of how strongly the sample bends light. With `OCCO` [1,2-ethanediol], the Normal boiling temperature in data set [1] turned out to be 197.48 ± 0.2 °C. In data set [2], the refractive index turned out to be 1.4324 ± 0.0007.
Usually mass density stands for the mass of a sample divided by its volume. Take `CC#N` [acetonitrile]: in data set [1], the mass density is listed as 783.4 ± 2 kg/m3 and the Normal boiling temperature turned out to be 81.50 ± 0.2 °C. Besides, the refractive index in data set [2] was found to be 1.3445 ± 0.0007.
Take `CCCO` [propan-1-ol]: in data set [1], the mass density worked out at 804.1 ± 2 kg/m3 and the Normal boiling temperature was determined as 97.30 ± 0.2 °C. Further, the refractive index in data set [2] worked out at 1.3865 ± 0.0007.
